Test results published in publication PMC8213057, “Targeting ALK2: An Open Science Approach to Developing Therapeutics for the Treatment of Diffuse Intrinsic Pontine Glioma” (Journal of Medicinal Chemistry, 2020).

Key:
TRKA = TRKA (Homo sapiens, UniProt P04629); conditions: 1 μM; Run 1, Run 2
KSR2 = biological target: T1, KSR2 (Homo sapiens, UniProt Q6VAB6); conditions: 1 μM; Run 1, Run 2
T1 sequence (Q6VAB6 1-950): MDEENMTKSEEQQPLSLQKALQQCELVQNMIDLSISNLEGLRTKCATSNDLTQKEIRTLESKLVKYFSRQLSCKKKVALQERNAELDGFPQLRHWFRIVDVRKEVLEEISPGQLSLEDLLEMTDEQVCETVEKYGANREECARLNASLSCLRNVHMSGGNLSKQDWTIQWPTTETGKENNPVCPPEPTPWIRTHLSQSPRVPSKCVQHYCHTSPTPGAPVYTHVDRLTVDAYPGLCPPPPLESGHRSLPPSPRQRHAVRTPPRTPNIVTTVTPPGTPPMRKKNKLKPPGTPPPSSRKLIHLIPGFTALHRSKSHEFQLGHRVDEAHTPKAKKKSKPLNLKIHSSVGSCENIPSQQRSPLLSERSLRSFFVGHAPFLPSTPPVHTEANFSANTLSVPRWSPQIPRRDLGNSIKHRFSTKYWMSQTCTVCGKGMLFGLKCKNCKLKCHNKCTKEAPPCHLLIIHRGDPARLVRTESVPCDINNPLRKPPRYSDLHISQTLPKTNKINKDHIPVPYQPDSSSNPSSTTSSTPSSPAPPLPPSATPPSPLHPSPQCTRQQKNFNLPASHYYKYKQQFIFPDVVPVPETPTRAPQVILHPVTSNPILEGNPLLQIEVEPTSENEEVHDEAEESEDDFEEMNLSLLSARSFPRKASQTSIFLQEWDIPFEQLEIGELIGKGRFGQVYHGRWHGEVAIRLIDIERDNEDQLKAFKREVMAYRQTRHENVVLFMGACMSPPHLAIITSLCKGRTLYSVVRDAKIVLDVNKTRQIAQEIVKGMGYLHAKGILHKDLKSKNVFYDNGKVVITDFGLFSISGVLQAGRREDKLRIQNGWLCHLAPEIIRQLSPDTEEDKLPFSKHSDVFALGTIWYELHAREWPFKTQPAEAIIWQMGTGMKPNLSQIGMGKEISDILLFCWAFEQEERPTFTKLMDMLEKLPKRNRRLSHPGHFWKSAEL

CLK4 = CLK4 (Homo sapiens, UniProt Q9HAZ1); conditions: 1 μM; Run 1, Run 2
CLK4, sequence (Q9HAZ1 whole entry): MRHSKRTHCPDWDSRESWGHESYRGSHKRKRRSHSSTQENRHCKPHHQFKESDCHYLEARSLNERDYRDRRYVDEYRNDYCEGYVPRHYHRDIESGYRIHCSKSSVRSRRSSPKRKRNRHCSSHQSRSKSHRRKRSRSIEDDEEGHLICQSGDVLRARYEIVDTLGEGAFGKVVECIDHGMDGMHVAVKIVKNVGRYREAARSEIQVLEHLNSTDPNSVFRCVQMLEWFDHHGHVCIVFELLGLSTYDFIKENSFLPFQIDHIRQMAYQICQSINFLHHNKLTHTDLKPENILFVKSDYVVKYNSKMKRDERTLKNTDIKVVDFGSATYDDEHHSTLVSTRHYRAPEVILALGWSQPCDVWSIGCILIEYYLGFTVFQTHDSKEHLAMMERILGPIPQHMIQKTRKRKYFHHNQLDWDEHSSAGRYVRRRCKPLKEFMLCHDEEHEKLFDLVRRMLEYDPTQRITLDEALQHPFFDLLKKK

PKG2/PRKG2 = biological target: T2, PKG2/PRKG2 (Homo sapiens, UniProt Q13237); conditions: 1 μM; Run 1, Run 2
T2 sequence (Q13237 1-762): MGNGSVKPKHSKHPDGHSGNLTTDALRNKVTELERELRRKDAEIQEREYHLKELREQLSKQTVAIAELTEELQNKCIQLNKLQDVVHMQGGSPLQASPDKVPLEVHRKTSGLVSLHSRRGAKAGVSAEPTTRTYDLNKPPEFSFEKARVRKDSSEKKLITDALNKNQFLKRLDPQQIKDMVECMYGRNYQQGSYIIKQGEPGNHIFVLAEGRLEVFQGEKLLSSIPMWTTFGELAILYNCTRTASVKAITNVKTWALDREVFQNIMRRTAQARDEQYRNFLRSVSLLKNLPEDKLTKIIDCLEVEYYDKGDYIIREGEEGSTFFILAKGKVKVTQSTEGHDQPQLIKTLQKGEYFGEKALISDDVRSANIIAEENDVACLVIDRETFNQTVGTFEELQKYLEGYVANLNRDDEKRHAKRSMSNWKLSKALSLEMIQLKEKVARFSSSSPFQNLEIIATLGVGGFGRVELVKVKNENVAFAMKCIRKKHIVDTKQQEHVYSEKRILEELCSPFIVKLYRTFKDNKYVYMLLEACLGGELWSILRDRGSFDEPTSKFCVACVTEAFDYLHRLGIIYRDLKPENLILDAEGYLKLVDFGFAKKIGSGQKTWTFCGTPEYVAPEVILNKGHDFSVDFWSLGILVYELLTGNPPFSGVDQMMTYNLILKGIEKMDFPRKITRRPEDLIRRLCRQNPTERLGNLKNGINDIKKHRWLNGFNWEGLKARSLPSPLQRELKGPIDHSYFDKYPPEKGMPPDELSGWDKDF

STK21/CIT = STK21/CIT (Homo sapiens, UniProt O14578); assay: biochemical; conditions: read-out: % enzyme activity, 1 μM; Run 1, Run 2
JAK2 = JAK2 (Homo sapiens, UniProt O60674); conditions: 1 μM; Run 1, Run 2
STK16 = STK16 (Homo sapiens, UniProt O75716); assay: biochemical; conditions: read-out: % enzyme activity, 1 μM; Run 1, Run 2
STK16, sequence (O75716 whole entry): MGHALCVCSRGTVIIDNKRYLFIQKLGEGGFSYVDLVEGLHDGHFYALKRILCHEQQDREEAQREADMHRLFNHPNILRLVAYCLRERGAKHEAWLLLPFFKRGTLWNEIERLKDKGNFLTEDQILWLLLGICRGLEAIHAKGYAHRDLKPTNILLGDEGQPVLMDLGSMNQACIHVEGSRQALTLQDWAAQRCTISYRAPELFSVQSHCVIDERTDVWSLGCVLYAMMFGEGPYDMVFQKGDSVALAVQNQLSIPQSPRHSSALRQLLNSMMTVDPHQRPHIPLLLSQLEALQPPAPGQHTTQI

PIM1 = PIM1 (Homo sapiens, UniProt P11309); conditions: 1 μM; Run 1, Run 2
PIM1, sequence (P11309 whole entry): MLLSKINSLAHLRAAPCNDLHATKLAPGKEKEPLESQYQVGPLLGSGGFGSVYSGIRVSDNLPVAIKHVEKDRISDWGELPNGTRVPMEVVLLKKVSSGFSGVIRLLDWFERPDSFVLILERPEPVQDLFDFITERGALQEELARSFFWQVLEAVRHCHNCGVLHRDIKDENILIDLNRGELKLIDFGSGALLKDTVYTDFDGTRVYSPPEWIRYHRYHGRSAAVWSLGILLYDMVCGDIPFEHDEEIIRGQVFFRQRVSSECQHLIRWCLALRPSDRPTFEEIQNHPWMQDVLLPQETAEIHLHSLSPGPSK

PLK2 = PLK2 (Homo sapiens, UniProt Q9NYY3); conditions: 1 μM; Run 1, Run 2
PLK2, sequence (Q9NYY3 whole entry): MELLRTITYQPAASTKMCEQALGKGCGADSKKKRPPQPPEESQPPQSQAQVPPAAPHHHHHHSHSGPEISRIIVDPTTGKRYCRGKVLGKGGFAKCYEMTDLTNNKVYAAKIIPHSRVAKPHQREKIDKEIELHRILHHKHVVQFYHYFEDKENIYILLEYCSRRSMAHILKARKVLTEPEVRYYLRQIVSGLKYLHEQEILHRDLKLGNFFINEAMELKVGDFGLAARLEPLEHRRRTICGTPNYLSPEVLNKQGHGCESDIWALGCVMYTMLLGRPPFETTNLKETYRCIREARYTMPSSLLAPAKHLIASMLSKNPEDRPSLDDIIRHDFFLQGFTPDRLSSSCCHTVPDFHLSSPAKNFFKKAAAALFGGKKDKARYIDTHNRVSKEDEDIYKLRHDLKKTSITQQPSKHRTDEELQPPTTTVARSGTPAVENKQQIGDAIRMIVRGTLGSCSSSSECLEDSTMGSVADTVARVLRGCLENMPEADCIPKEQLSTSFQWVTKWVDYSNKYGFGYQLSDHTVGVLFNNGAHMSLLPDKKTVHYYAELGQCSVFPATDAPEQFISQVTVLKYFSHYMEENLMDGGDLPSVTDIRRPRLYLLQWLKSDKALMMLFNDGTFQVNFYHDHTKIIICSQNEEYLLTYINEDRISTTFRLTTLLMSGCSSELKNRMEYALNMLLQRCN

CDK6/cyclin D1 = CDK6/cyclin D1 (Homo sapiens, UniProt Q00534); conditions: 1 μM; Run 1, Run 2
CDK6/cyclin D1, sequence (Q00534 whole entry): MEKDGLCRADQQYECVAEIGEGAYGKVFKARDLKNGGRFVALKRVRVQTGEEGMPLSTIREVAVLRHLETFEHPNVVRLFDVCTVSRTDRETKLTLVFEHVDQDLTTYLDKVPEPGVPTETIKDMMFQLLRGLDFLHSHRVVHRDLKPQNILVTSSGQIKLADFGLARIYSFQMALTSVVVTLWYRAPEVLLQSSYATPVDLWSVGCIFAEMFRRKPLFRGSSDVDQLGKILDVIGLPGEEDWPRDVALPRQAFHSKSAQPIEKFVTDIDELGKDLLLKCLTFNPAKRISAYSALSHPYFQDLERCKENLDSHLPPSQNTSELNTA
CDK6/cyclin D1, sequence (P24385 whole entry partner): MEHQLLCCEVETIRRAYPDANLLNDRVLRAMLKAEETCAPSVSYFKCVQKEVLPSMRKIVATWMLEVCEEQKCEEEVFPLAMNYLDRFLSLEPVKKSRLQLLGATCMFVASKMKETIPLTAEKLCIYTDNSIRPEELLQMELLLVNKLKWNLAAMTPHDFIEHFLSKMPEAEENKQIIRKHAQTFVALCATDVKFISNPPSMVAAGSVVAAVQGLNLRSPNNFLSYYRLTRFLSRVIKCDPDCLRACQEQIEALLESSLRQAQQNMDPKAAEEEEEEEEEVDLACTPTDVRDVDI

GRK5 = GRK5 (Homo sapiens, UniProt P34947); assay: biochemical; conditions: read-out: % enzyme activity, 1 μM; Run 1, Run 2
GRK5, sequence (P34947 whole entry): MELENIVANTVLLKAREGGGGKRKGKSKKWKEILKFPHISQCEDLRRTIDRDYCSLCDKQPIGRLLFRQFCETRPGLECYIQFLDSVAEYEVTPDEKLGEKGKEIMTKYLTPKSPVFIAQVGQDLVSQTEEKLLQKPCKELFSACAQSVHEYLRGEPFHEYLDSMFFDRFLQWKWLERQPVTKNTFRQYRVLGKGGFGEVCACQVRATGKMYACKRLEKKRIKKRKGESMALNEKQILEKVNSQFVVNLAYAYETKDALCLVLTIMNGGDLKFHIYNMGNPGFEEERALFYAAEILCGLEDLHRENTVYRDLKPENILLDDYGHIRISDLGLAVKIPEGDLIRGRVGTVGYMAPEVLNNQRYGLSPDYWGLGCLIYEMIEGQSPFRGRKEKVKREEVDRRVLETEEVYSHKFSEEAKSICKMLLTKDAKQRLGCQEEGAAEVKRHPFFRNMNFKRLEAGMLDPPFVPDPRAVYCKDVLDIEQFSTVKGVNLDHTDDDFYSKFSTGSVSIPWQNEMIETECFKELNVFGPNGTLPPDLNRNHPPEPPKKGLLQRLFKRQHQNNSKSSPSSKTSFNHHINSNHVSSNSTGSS

ALK = ALK (Homo sapiens, UniProt Q9UM73); conditions: 1 μM; Run 1, Run 2
PKAcb = PKAcb (Homo sapiens, UniProt P22694); conditions: 1 μM; Run 1, Run 2
PAK2 = PAK2 (Homo sapiens, UniProt Q13177); conditions: 1 μM; Run 1, Run 2
PAK2, sequence (Q13177 whole entry): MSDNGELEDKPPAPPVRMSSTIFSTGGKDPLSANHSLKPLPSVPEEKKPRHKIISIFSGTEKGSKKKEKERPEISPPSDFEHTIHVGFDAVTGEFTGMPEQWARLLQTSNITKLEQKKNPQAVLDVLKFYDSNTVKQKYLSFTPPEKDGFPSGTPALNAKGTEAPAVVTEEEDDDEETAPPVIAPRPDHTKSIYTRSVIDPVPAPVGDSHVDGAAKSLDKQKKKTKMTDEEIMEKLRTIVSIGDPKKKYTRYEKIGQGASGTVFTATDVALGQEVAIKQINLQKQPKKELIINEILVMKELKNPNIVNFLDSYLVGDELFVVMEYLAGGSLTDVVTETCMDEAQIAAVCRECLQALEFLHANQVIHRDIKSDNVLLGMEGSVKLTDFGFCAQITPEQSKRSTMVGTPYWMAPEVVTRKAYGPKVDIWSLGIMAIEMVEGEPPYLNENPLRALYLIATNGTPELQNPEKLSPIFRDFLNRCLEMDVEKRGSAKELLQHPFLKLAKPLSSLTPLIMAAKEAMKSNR

SLK/STK2 = SLK/STK2 (Homo sapiens, UniProt Q9H2G2); conditions: 1 μM; Run 1, Run 2

TRKA, sequence (P04629 33-796): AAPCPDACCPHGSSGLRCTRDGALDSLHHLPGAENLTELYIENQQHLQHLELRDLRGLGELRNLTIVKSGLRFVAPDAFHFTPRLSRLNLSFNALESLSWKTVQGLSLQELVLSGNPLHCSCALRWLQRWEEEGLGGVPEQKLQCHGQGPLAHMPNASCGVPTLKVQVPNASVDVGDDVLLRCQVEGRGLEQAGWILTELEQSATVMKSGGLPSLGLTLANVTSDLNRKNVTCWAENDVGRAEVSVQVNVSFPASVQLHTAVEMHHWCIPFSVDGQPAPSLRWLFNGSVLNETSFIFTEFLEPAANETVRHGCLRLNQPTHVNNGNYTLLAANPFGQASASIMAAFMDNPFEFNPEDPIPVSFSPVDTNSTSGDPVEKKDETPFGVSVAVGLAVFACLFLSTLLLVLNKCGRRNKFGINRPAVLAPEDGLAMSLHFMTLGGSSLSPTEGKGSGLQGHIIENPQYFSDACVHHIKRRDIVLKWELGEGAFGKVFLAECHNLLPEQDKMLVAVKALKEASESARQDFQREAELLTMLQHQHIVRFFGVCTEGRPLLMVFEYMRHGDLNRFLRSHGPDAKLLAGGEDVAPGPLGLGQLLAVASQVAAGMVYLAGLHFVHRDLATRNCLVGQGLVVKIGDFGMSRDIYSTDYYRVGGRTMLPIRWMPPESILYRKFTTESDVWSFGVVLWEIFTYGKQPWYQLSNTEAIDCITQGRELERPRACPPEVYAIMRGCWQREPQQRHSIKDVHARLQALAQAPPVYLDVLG

SMILES | % enzyme activity (TRKA) | % enzyme activity (KSR2) | % enzyme activity (CLK4) | % enzyme activity (PKG2/PRKG2) | remaining activity at 1 µM (STK21/CIT) | % enzyme activity (JAK2) | remaining activity at 1 µM (STK16) | % enzyme activity (PIM1) | % enzyme activity (PLK2) | % enzyme activity (CDK6/cyclin D1) | remaining activity at 1 µM (GRK5) | % enzyme activity (ALK) | % enzyme activity (PKAcb) | % enzyme activity (PAK2) | % enzyme activity (SLK/STK2)
COc1cc(-c2cncc(-c3ccc(N4CCN(C)CC4)cc3)c2C)cc(F)c1C(N)=O [Compound 26a, 2-Fluoro-6-methoxy-4-(4-methyl-5-(4-(4-methylpiperazin-1-yl)phenyl)pyridin-3-yl)benzamide] | 90.11% | 93.25% | 85.58% | 97.48% | 88.8% | 92.09% | 107% | 97.92% | 97.24% | 97.80% | 104% | 99.31% | 95.19% | 100.35% | 96.16%
COc1cc(-c2cncc(-c3ccc(N4C[C@@H](C)N(C)[C@@H](C)C4)cc3)c2C)cc(F)c1C(N)=O [Compound 26c, 2-Fluoro-6-methoxy-4-(4-methyl-5-(4-((3R,5S)-3,4,5-trimethylpiperazin-1-yl)phenyl)pyridin-3-yl)benzamide] | 94.00% | 97.71% | 91.14% | 97.08% | 89.1% | 88.17% | 101% | 92.25% | 102.38% | 92.80% | 93.1% | 96.51% | 96.20% | 103.95% | 100.64%
